Assay results taken from patent US8802700B2 (Vertex Pharmaceuticals Incorporated, priority 2010, dated 2014).

Target: T1, ΔF508-CFTR (Homo sapiens, UniProt P13569, DEL508-508)
T1 construct: expressed in transfected cells
Assay: Membrane potential optical assay (FRET voltage-sensor dyes, VIPR), identification of potentiator compounds
Assay type: cell-based
Conditions: Table 3; assay not given
Summary of the method: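 NIH3T3 mouse fibroblasts stably expressing ΔF508-CFTR, cultured 24 h at 27 °C, were loaded with FRET voltage dyes CC2-DMPE and DiSBAC2(3). Double-addition format: first addition of Cl⁻-free (gluconate) medium with or without compound; membrane-potential change read as fluorescence on VIPR II.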

T1 sequence (P13569 with tags, fused parts or gaps DEL508-508): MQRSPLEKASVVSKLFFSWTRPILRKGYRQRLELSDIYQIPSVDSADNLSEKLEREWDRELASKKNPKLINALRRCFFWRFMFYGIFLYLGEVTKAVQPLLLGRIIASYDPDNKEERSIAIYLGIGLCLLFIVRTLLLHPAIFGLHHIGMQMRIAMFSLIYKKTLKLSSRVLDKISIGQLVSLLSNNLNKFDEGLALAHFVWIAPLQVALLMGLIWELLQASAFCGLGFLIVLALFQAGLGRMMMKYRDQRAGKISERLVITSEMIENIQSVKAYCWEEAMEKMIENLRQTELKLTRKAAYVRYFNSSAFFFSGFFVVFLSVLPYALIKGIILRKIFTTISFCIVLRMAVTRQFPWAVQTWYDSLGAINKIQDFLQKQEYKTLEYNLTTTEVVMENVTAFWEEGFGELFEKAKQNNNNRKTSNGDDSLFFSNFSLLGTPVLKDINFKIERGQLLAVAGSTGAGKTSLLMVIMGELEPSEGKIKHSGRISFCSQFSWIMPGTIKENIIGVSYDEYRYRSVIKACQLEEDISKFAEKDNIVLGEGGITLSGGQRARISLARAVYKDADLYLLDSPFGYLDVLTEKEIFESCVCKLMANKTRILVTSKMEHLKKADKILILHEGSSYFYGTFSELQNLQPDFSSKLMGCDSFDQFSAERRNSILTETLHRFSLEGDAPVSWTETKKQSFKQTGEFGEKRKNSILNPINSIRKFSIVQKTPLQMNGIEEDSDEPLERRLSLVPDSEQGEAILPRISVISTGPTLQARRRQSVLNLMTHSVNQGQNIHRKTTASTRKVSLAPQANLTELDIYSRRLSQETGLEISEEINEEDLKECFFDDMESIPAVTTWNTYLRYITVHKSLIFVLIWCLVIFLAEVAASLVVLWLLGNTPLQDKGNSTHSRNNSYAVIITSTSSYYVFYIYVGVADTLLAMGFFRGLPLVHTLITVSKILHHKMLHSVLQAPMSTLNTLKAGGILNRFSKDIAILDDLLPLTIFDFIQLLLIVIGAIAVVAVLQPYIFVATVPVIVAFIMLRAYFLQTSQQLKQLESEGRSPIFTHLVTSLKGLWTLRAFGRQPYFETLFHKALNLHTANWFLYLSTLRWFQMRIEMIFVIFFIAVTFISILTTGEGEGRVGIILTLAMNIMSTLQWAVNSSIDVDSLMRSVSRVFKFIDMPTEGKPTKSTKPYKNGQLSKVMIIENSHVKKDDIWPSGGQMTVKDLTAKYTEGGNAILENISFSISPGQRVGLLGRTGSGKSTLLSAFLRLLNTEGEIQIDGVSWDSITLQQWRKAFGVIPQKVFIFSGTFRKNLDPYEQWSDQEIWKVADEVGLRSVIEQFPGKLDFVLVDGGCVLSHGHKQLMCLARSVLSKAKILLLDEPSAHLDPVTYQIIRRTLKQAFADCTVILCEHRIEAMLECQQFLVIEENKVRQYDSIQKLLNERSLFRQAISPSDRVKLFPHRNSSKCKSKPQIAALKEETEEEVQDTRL

EC50 | Compound
< 10 µM | O=C(Nc1ccccc1-c1ccc2[nH]ccc2c1)c1c[nH]c2ccccc2c1=O [Compound 118, N-[2-(1H-indol-5-yl)phenyl]-4-oxo-1H-quinoline-3-carboxamide]

Same assay, conditions: Table 3; assay not given; read-out: % Activity (% Efficacy, relative efficacy)

Emax | Compound
25 to 100% | COC(=O)Oc1c(NC(=O)c2c[nH]c3ccccc3c2=O)cc(F)cc1C(C)(C)C [Compound 288, N-(5-fluoro-2-methoxycarbonyloxy-3-tert-butyl-phenyl)-4-oxo-1H-quinoline-3-carboxamide]
25 to 100% | CC(C)c1ccc(NC(=O)c2c[nH]c3ccc(Cl)cc3c2=O)c(C(F)(F)F)c1 [Compound 657, 6-chloro-N-[4-isopropyl-2-(trifluoromethyl)phenyl]-4-oxo-1H-quinoline-3-carboxamide]
25 to 100% | CC1CCN(c2ccccc2NC(=O)c2c[nH]c3ccccc3c2=O)CC1 [Compound 372, N-[2-(4-methyl-1-piperidyl)phenyl]-4-oxo-1H-quinoline-3-carboxamide]
25 to 100% | O=C(Nc1ccc(-c2ccccc2)cc1)c1c[nH]c2ccccc2c1=O [Compound 397, 4-oxo-N-(4-phenylphenyl)-1H-quinoline-3-carboxamide]
< 25% | O=C(Nc1ccccc1CCO)c1c[nH]c2ccccc2c1=O [Compound 40, N-[2-(2-hydroxyethyl)phenyl]-4-oxo-1H-quinoline-3-carboxamide]
25 to 100% | CC(C)(C)c1ccc(NC(=O)c2c[nH]c3ccccc3c2=O)cc1OCCO [Compound 458, N-[3-(2-hydroxyethoxy)-4-tert-butyl-phenyl]-4-oxo-1H-quinoline-3-carboxamide]
< 25% | O=C(Nc1ccc2c(c1)S(=O)(=O)C=C2)c1c[nH]c2ccccc2c1=O [Compound 446, N-(1,1-dioxobenzothiophen-6-yl)-4-oxo-1H-quinoline-3-carboxamide]
25 to 100% | CN(Cc1ccccc1NC(=O)c1c[nH]c2ccccc2c1=O)C1CCCCC1 [Compound 354, N-[2-[(cyclohexyl-methyl-amino)methyl]phenyl]-4-oxo-1H-quinoline-3-carboxamide]
25 to 100% | O=C(Nc1ccc2[nH]ncc2c1)c1c[nH]c2ccccc2c1=O [Compound 217, N-(1H-indazol-5-yl)-4-oxo-1H-quinoline-3-carboxamide]
25 to 100% | O=C(Nc1cc(Cl)ccc1F)c1c[nH]c2ccccc2c1=O [Compound 48, N-(5-chloro-2-fluoro-phenyl)-4-oxo-1H-quinoline-3-carboxamide]
< 25% | O=C(Nc1ccncc1)c1c[nH]c2ccccc2c1=O [Compound 53, 4-oxo-N-(4-pyridyl)-1H-quinoline-3-carboxamide]
25 to 100% | C[C@H]1CCCN1c1ccc(NC(=O)c2c[nH]c3cccc(C(F)(F)F)c3c2=O)c(C(F)(F)F)c1 [Compound 669, (S)-N-(4-(2-methylpyrrolidin-1-yl)-2-(trifluoromethyl)phenyl)-4-oxo-5-(trifluoromethyl)-1,4-dihydroquinoline-3-carboxamide]
25 to 100% | CC(C)c1ccc(NC(=O)c2c[nH]c3ccccc3c2=O)cc1N [Compound 69, N-(3-amino-4-isopropyl-phenyl)-4-oxo-1H-quinoline-3-carboxamide]
25 to 100% | O=C(Nc1ccc2cc[nH]c2c1)c1cnc2ccc(F)cc2c1O [Compound 345, 6-fluoro-4-hydroxy-N-(1H-indol-6-yl)quinoline-3-carboxamide]
25 to 100% | Nc1cc(NC(=O)c2c[nH]c3ccccc3c2=O)cc(C(F)(F)F)c1 [Compound 429, N-[3-amino-5-(trifluoromethyl)phenyl]-4-oxo-1H-quinoline-3-carboxamide]
25 to 100% | CCOCCOc1cc(NC(=O)c2c[nH]c3ccccc3c2=O)ccc1C(C)(C)C [Compound 161, N-[3-(2-ethoxyethoxy)-4-tert-butyl-phenyl]-4-oxo-1H-quinoline-3-carboxamide]
25 to 100% | CC(C)(C)c1cc(F)c(NC(=O)c2c[nH]c3ccccc3c2=O)cc1O [Compound 143, N-(2-fluoro-5-hydroxy-4-tert-butyl-phenyl)-4-oxo-1H-quinoline-3-carboxamide]
25 to 100% | O=C(Nc1ccccc1-c1ccc(F)c(Cl)c1)c1c[nH]c2ccccc2c1=O [Compound 190, N-[2-(3-chloro-4-fluoro-phenyl)phenyl]-4-oxo-1H-quinoline-3-carboxamide]
25 to 100% | C[C@H]1CCCN1c1ccc(NC(=O)c2c[nH]c3ccccc3c2=O)c(C(F)(F)F)c1 [Compound 618, (S)-N-(4-(2-methylpyrrolidin-1-yl)-2-(trifluoromethyl)phenyl)-4-oxo-1,4-dihydroquinoline-3-carboxamide]
< 25% | O=C(Nc1cc(C(F)(F)F)cc(C(F)(F)F)c1)c1c[nH]c2ccccc2c1=O [Compound 154, N-[3,5-bis(trifluoromethyl)phenyl]-4-oxo-1H-quinoline-3-carboxamide]
25 to 100% | COC(=O)c1ccc(-c2ccccc2NC(=O)c2c[nH]c3ccccc3c2=O)cc1 [Compound 166, 4-[2-[(4-oxo-1H-quinolin-3-yl)carbonylamino]phenyl]benzoic acid methyl ester]
25 to 100% | Cc1cc(C)c(NC(=O)c2c[nH]c3ccccc3c2=O)c(C)c1 [Compound 50, 4-oxo-N-(2,4,6-trimethylphenyl)-1H-quinoline-3-carboxamide]

Emax | Compound
< 25% | COc1cc(C#N)c(NC(=O)c2c[nH]c3ccccc3c2=O)cc1OC [Compound 106, N-(2-cyano-4,5-dimethoxy-phenyl)-4-oxo-1H-quinoline-3-carboxamide]
25 to 100% | CCC(C)c1ccc(NC(=O)c2c[nH]c3ccccc3c2=O)cc1 (centres unmarked) [Compound 310, 4-oxo-N-(4-sec-butylphenyl)-1H-quinoline-3-carboxamide]
25 to 100% | CCOC(=O)c1cc2cc[nH]c2cc1NC(=O)c1c[nH]c2ccccc2c1=O [Compound 188, 6-[(4-oxo-1H-quinolin-3-yl)carbonylamino]-1H-indole-5-carboxylic acid ethyl ester]
25 to 100% | Cc1ccc(NC(=O)c2c[nH]c3ccccc3c2=O)cc1 [Compound 31, 4-oxo-N-(p-tolyl)-1H-quinoline-3-carboxamide]
> 100% | CC(C)(C)OC(=O)NC1CCCc2ccc(NC(=O)c3c[nH]c4ccccc4c3=O)cc21 (centres unmarked) [Compound 273, [7-[(4-oxo-1H-quinolin-3-yl)carbonylamino]tetralin-1-yl]aminoformic acid tert-butyl ester]
> 100% | O=C(Nc1ccc2c(C(F)(F)F)c[nH]c2c1)c1c[nH]c2ccccc2c1=O [Compound 545, 4-oxo-N-[3-(trifluoromethyl)-1H-indol-6-yl]-1H-quinoline-3-carboxamide]
25 to 100% | O=C(Nc1cc2[nH]ccc2cc1F)c1c[nH]c2ccc(F)cc2c1=O [Compound 254, 6-fluoro-N-(5-fluoro-1H-indol-6-yl)-4-oxo-1H-quinoline-3-carboxamide]
25 to 100% | O=C(Nc1ccccc1-c1ccc2[nH]ccc2c1)c1c[nH]c2ccccc2c1=O [Compound 118, N-[2-(1H-indol-5-yl)phenyl]-4-oxo-1H-quinoline-3-carboxamide]
25 to 100% | O=C(c1ccccc1)c1ccccc1NC(=O)c1c[nH]c2ccccc2c1=O [Compound 252, N-(2-benzoylphenyl)-4-oxo-1H-quinoline-3-carboxamide]
25 to 100% | O=C(Nc1ccc(C2CCCCC2)c(O)c1)c1c[nH]c2cccc(O)c2c1=O [Compound 522, N-(4-cyclohexyl-3-hydroxy-phenyl)-5-hydroxy-4-oxo-1H-quinoline-3-carboxamide]
25 to 100% | Cc1ccc(C(F)(F)F)cc1NC(=O)c1c[nH]c2ccc(F)cc2c1=O [Compound 678, 6-fluoro-N-[2-methyl-5-(trifluoromethyl)phenyl]-4-oxo-1H-quinoline-3-carboxamide]
25 to 100% | O=C(Nc1ccccc1-c1ccc(F)cc1F)c1c[nH]c2ccccc2c1=O [Compound 63, N-[2-(2,4-difluorophenyl)phenyl]-4-oxo-1H-quinoline-3-carboxamide]
25 to 100% | CC(C)(C)OC(=O)Nc1ccc(C(C)(C)C)c(NC(=O)c2c[nH]c3ccccc3c2=O)c1 [Compound 353, [3-[(4-oxo-1H-quinolin-3-yl)carbonylamino]-4-tert-butyl-phenyl]aminoformic acid tert-butyl ester]
25 to 100% | O=C(Nc1ccc(C(F)(F)F)cc1N1CCCCC1)c1c[nH]c2ccccc2c1=O [Compound 514, 4-oxo-N-[2-(1-piperidyl)-4-(trifluoromethyl)phenyl]-1H-quinoline-3-carboxamide]
25 to 100% | Cc1ccccc1-c1nc2cc(NC(=O)c3c[nH]c4ccccc4c3=O)ccc2o1 [Compound 329, N-[2-(o-tolyl)benzooxazol-5-yl]-4-oxo-1H-quinoline-3-carboxamide]
25 to 100% | CCOc1ccccc1-c1ccc(CN)cc1NC(=O)c1c[nH]c2ccccc2c1=O [Compound 163, 4-Oxo-1,4-dihydro-quinoline-3-carboxylic acid (4-aminomethyl-2′-ethoxy-biphenyl-2-yl)-amide]
25 to 100% | O=C(Nc1ccccc1N1CCOCC1)c1c[nH]c2ccccc2c1=O [Compound 4, N-(2-morpholinophenyl)-4-oxo-1H-quinoline-3-carboxamide]
> 100% | Cc1ccc2c(=O)c(C(=O)Nc3cc(O)c(C(C)(C)C)cc3C(C)(C)C)c[nH]c2c1 [Compound 640, N-(5-hydroxy-2,4-ditert-butyl-phenyl)-7-methyl-4-oxo-1H-quinoline-3-carboxamide]
25 to 100% | CC(C)(C)c1cc(C(C)(C)C)c(NC(=O)c2c[nH]c3cc(O)ccc3c2=O)cc1O [Compound 652, 7-hydroxy-N-(5-hydroxy-2,4-ditert-butyl-phenyl)-4-oxo-1H-quinoline-3-carboxamide]
25 to 100% | O=C(Nc1ccccc1)c1c[nH]c2cc(C(F)(F)F)ccc2c1=O [Compound 346, 4-oxo-N-phenyl-7-(trifluoromethyl)-1H-quinoline-3-carboxamide]
25 to 100% | O=C(Nc1csc(C(F)(F)F)c1-c1ccccc1)c1c[nH]c2ccccc2c1=O [Compound 708, 4-oxo-N-[4-phenyl-5-(trifluoromethyl)-3-thienyl]-1H-quinoline-3-carboxamide]
